Key:
[1] = molecular target: T1, porcine pancreatic lipase (PPL) (Sus scrofa, UniProt P00591); details: pig, 3 h, pH 11.5
T1 sequence (P00591 1-450): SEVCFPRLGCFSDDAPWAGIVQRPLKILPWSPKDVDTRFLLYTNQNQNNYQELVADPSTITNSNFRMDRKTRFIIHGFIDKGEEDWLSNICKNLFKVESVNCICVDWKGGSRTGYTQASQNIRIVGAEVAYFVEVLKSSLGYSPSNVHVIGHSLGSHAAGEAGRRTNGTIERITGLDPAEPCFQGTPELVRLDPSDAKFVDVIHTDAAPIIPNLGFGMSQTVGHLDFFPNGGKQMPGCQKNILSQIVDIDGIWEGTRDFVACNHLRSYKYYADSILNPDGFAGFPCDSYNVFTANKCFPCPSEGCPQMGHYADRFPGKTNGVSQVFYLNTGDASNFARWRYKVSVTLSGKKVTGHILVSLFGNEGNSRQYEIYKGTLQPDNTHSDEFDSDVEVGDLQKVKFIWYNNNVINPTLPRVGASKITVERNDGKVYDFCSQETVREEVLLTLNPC
T1 sequence (P02703 23-112 partner): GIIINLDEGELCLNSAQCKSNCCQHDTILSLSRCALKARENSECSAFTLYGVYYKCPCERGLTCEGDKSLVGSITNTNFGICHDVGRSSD
Description: Because many fatty acids are only partially ionised at pH 6.8, direct titration gives only partial picture of the extent of lipid digestion, instead back titration to pH 11.5 or GC-FAME analysis is required to estimate the full extent of digestion.

[2] = tested on: rabbit gastric lipase (RGL) followed by porcine pancreatic lipase (PPL)

Extent of digestion [1]: 101.5±0.9%
Total amount of acid released ([2]; rabbit (gastric lipase), pig (pancreatic lipase), 3 h, pH 6.8): 381 ± 20 µmol
Initial lipolysis rate in SIF ([2]; rabbit (gastric lipase), pig (pancreatic lipase), pH 6.8): 44.1 ± 8.8 µmol/min
Lipolysis by gastric lipase ([2]; rabbit, 90 min, 19 mg/mL, pH 5.5): ~60%
SMILES: CCCC(=O)OCC(COC(=O)CCC)OC(=O)CCC [tributyrin]

Reference: patent US12661334B2, “Dietary butyrate and its uses” (SOCIETE DES PRODUITS NESTLE S.A., priority 2019, dated 2026)
